Tested on: E. coli BW25113
Assay type: cell-based, Escherichia coli
Conditions: n=3

In the case of Polymyxin B, the “Increase in Polymyxin B resistance” value is reported as “five”.

Source: publication PMC6387620 (Nature microbiology, 2018)
